Assay results: US6838560B1, “Process for manufacturing morpholino-nucleotides, and use thereof for the analysis of and labelling of nucleic acid sequences” (priority 1999, dated 2005)

Tests used:
Type in all cases: biochemical
[1] = target: T1, Taq polyerase (Thermus aquaticus, UniProt P19821); assay: Sequencing reaction with fluorescent primers on Bluescript plasmid DNA (Example 14); details: fluorescence detection of the sequencing products
T1 construct: purchased Perkin-Elmer
Protocol: Morpholino A putrescine (MATPP) 7 and morpholino A fluorescein (MATPPF) 12 are tested in squencing reaction with fluorescent primers (Applied Biosystems, Perkin-Elmer, Foster City, Calif., USA) on a standard template which is a Bluescript plasmid DNA (Stratagene, La Jolla, Calif., USA). The enzyme used is a Taq polyerase (Perkin-Elmer) which is used in its buffer (Thermo Sequenase buffer, Amersham Life Science).
Three sequencing reactions are carried out with MATPP at 100, 200 and 400 μM and four sequencing reactions are carried out with MATPPF at 200, 500, 1000 and 5000 μM, along with control reactions with the dideoxynucleotide ddATP at a concentration of 250 μM (Boehringer).
The reaction medium, of a total volume of 10 μL, contains 125 ng of template, 1.25 pmol of fluorescent primer and the other constituents as described in the tables.
The medium is subjected to heating cycles in order to produce in number molecules of newly formed DNA strands. […]
The amplification products are purified on a Sephadex G50 column. The products of each sequencing reaction are mixed with the products of a control reaction and analysed by electrophoresis. […]

[2] = target: T2, Klenow fragment (Escherichia coli, UniProt P00582); assay: Template-dependent 3' labelling / primer A extension, polyacrylamide gel; details: for enzymatic incorporation at 3' end of primer A: MATPP 400, 200, 50 μM, MATPPF 2.5 mM, 400, 200, 50 μM, 37° C., 10 minutes; for interruption of chain elongation after incorporation: with dGTP and dTTP (solution 2P), FIG. 4
T2 construct: the Klenow fragment (Boehringer Mannheim); purchased Boehringer Mannheim
Protocol: (§1) Use of morpholino A putrescine (MATPP) and morpholino A fluorescein (MATPPF) for the template-dependent 3′ labelling of DNA fragments; test of enzymatic incorporation of these compounds by three polymerases (Taq, Klenow, Klenow Exo Free) and a reverse transcriptase.
(§2) These two nucleoside triphosphate derivatives are tested in enzymatic incorporation to label an oligonucleotide 13 bases long at its 3′ end. This labelling is referred to as “template-dependent” since the enzymes used need the complementary strand to extend the oligonucleotide according to the Watson & Crick rules. Sequence A (17870 pmol/mL) studied and also its complementary target C (16128 pmol/mL) are given in the figure below: • Target C: 3′-TGCCAACCAACCCCACCTCAACCTCTG-5′ (SEQ ID NO: 7) • Primer A: 5′-ACG GTT GGT TGG G (13 bp) (SEQ ID NO: 8) • Expected fragments: 5′-ACG GTT TGG GGT GGA (18 bp) (SEQ ID NO: 9) • and lengths (bp): 5′-ACGGTTGGTTGGGGTGGAGTTGGA (24 bp)(SEQ ID NO: 10) 5′-ACGGTTGGTTGGGGTGGAGTTGGAGA (26 bp) (SEQ ID NO: 11) 5′-ACGGTTGGTTGGGGTGGAGTTGGAGAC (27 bp) (SEQ ID NO: 12)
(§3) Three enzymes are used for this labelling: Taq DNA polymerase (Boehringer Mannheim), the Klenow fragment (Boehringer Mannheim) and the Klenow exonuclease-free polymerase (Amersham Life Science). The primer is labelled at its 5′ end by incorporation of ^32P phosphate with the “Ready to go” T4 Polynucleotide Kinase kit (Pharmacia Biotech). The radiolabelled primer is noted A*.
(§4) The reaction buffers for the three enzymes are prepared for 10 reactions:
(§5) The enzymes are then diluted in the following manner, for 10 reactions: • Taq (5U/μL): 10×0.1 μL of Taq+10×15.5 μL of H2O • Klenow (20U/μL): 10×0.1 μL of Klenow+10×15.5 μL of H2O • Klenow Exo Free (5U/μL): 10×0.1 μL of Klenow Exo Free+10×15.5 μL of H2O.
(§6) Solutions containing the normal nucleoside triphosphates are also prepared: • Solution “2P” composed of a mixture of dGTP and dTTP each at 0.1 mM • Solution “4P” composed of a mixture of dATP, dCTP, dGTP and dTTP each at 0.1 mM
(§7) The implementation reactions are described in Table 14 below:
(§8) The morpholino A putrescine is thus tested at three concentrations: 400, 200 and 50 μM, while the morpholino A fluorescein is reacted at 2.5 mM, 400, 200 and 50 μM.
(§9) Before adding the enzyme, the mixture is denatured at 94° C. for 5 minutes. It is then left to return to ambient temperature in order for the hybridization to take place. The elongation is carried out at 70° C. for the Taq and at 37° C. for the two Klenow fragments, and for 10 minutes. Finally, the medium is again denatured with a formamide solution and heating at 90° C. for 5 minutes, after which it is placed on a polyacrylamide gel. The separation is carried out by electrophoresis at 2000 V. The gel is read using a Phosphorimager; the results obtained are given in FIG. 4.
(§10) In this figure, the lanes 1 serve as migration control for the labelled oligonucleotide A. This oligonucleotide has a length of 13 bases (13-mer). Lanes 2, 3 and 4 allow the elongation of the oligonucleotide A and the incorporation of the morpholino A putrescine to be monitored. Under these conditions, only the nucleotides dGTP and dTTP (solution “2P”) were added and can be used by the enzyme to carry out the extention of the primer. The presence of the morpholino A putrescine in the reaction medium allows its incorporation at the level of base 18. A control was carried out, placing in the medium only the “2P” mixture; in this case, the enzyme continues its extension up to the 17th base since it has no adenosine derivative to continue its polymerization. […] Reactions 5 to 8 correspond to the same reactions with morpholino A fluorescein. […] It is noted, however, for the two Klenow fragments, that there was occasionally incorporation of another base (G or T) in place of the morpholino derivative. Specifically, in these cases, elongation products corresponding to the 18-mer and 24-mer are found. […]

[3] = target: T3, Taq DNA polymerase (Thermus aquaticus, UniProt P19821); assay: as above; details: for enzymatic incorporation at 3' end of primer A: MATPP 400, 200, 50 μM, MATPPF 2.5 mM, 400, 200, 50 μM, 70° C., 10 minutes; for interruption of chain elongation after incorporation: with dGTP and dTTP (solution 2P), FIG. 4
T3 construct: purchased Boehringer Mannheim
Protocol: as §1, §2, §3, §4, §5, §6, §7, §8, §9, §10

[4] = target: T4, Klenow exonuclease-free polymerase (Escherichia coli, UniProt P00582, D355A/E357A); assay: as above; details: for enzymatic incorporation at 3' end of primer A: MATPP 400, 200, 50 μM, MATPPF 2.5 mM, 400, 200, 50 μM, 37° C., 10 minutes; for interruption of chain elongation after incorporation: with dGTP and dTTP (solution 2P), FIG. 4
T4 construct: purchased Amersham Life Science
Protocol: as §1, §2, §3, §4, §5, §6, §7, §8, §9, §10

[5] = target: T5, Taq polymerase (Thermus aquaticus, UniProt P19821); assay: Sequencing reaction with fluorescent primers on Bluescript plasmid DNA (Example 13); details: 200 and 500 μM; Bluescript plasmid template; FIG. 1
T5 construct: purchased Perkin-Elmer
Protocol: The morpholino T glycine 4 of Example 2 is tested in sequence reaction with fluorescent primers (Applied Biosystems, Perkin-Elmer, Foster City, Calif., USA) on a standard template which is a Bluescript plasmid DNA (Stratagene, La Jolla, Calif., USA). The enzyme used is a Taq polymerase (Perkin-Elmer), which is used in its buffer (TACS buffer, Perkin-Elmer).
Two reactions are carried out with morpholino T glycine at 200 and 500 μM (Table 4), and also two control reactions (Table 5) with dideoxynucleotide T (Boehringer).
The reaction medium, of a total volume of 10 μL, contains 125 ng of template, 1.25 pmol of fluorescent primer and the other constituents given in Tables 4 and 5. The medium is subjected to heat cycles in order to produce in number molecules of newly formed DNA strands. […]
The products of the sequencing reactions are detected by fluorescence. The results obtained are represented in the attached figure which illustrates the detection of the products in the sequencing gel analysed by the Perkin-Elmer Analysis software, version 3.0.
For each test, the primers are identifiable by their fluorescence properties, the ROX label (red) for the control reaction 250 μm dideoxythymidine triphosphate (dashed-curve) and the label JOE (green) for the reaction concerning the 200 μm morpholino T glycine (solid-line curve).

T3 sequence (P19821 whole entry): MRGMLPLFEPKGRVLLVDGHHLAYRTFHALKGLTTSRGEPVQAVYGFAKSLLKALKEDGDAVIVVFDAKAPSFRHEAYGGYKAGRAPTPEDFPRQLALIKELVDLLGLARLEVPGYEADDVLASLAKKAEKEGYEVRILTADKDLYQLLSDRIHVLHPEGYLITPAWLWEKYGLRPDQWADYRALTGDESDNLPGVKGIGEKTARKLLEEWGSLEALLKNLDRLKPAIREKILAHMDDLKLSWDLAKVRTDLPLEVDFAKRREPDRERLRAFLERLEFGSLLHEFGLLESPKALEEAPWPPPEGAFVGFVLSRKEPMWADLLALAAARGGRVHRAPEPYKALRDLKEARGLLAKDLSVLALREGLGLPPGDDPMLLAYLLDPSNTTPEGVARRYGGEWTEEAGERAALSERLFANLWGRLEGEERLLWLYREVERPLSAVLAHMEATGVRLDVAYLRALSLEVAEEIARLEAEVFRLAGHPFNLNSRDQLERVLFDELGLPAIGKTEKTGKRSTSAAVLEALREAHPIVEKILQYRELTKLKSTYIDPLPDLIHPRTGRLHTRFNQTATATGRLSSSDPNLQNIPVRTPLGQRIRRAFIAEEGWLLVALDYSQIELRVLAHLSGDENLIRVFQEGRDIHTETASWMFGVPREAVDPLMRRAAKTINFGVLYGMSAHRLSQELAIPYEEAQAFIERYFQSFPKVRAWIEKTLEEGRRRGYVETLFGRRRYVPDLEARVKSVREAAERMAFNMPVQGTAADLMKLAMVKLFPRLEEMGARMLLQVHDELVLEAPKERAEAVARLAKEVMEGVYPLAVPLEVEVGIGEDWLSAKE
T4 sequence (P00582 324-928 D355A/E357A): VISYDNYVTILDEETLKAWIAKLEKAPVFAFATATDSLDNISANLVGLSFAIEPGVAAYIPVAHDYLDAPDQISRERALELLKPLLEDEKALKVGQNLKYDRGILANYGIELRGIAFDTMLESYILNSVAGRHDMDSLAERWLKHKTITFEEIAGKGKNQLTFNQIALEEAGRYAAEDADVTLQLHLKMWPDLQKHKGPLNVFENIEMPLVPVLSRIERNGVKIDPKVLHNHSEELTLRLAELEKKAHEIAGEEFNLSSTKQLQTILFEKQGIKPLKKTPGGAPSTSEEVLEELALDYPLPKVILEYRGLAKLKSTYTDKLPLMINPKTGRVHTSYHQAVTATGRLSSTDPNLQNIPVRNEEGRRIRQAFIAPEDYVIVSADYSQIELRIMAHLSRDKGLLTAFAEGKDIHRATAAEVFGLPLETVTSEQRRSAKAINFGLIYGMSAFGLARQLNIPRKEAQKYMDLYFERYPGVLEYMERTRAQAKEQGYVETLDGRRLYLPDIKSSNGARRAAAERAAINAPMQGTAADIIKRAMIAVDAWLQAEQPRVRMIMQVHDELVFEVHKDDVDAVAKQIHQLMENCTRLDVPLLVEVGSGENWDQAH
T2 sequence (P00582 324-928): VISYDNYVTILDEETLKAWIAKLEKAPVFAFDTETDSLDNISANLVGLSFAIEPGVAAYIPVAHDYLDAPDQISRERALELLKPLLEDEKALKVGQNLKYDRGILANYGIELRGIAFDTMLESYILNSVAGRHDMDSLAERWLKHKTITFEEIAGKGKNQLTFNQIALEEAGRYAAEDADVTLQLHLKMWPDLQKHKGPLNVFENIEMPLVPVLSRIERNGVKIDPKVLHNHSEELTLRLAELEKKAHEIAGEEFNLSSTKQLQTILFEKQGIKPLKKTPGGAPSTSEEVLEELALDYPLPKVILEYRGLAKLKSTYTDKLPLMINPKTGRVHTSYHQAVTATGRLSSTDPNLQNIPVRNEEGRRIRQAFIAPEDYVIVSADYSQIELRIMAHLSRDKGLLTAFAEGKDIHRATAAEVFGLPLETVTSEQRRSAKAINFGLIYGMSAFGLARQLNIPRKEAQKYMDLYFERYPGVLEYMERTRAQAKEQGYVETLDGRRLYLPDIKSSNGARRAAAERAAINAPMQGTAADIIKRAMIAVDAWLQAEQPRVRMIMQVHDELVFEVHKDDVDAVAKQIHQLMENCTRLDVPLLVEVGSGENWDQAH
T5 sequence (P19821 whole entry): as the sequence (P19821 whole entry) above
T1 sequence (P19821 whole entry): as above

| Molecule | detection of sequencing reaction products [1] | enzymatic incorporation at 3' end of primer A [2] | interruption of chain elongation after incorporation [2] | enzymatic incorporation at 3' end of primer A [3] | interruption of chain elongation after incorporation [3] | enzymatic incorporation at 3' end of primer A [4] | interruption of chain elongation after incorporation [4] | action as chain terminator in sequencing reaction [5] | incorporation by the Taq polymerase in sequencing reaction [5] |
| --- | --- | --- | --- | --- | --- | --- | --- | --- | --- |
| Nc1ncnc2c1ncn2C1CN(CCCCNC(=S)Nc2ccc3c(c2)C(=O)OC32c3ccc(O)cc3Oc3cc(O)ccc32)CC(COP(=O)(O)OP(=O)(O)OP(=O)(O)O)O1 (stereo not drawn) [morpholino A fluorescein] | detected by means of the fluorophore borne by this derivative | incorporate | stops the polymerization of the complementary strand | incorporate | stops the polymerization of the complementary strand | incorporate | stops the polymerization of the complementary strand |  |  |
| 4-(aminobutyl)-2-(adenosin-9-yl)-6-(hydroxymethyl)morpholine 6-triphosphate [morpholino A putrescine] |  | incorporate | interruption of the elongation of the chain | incorporate | interruption of the elongation of the chain | incorporate | interruption of the elongation of the chain |  |  |
| 4-(carboxymethyl)-2-(thymidin-1-yl)-6-(hydroxymethyl)morpholine 6-triphosphate [morpholino T glycine] |  |  |  |  |  |  |  | acts correctly as a chain terminator | correctly incorporated in a base-specific manner |
